# Measured values: patent US12201610B2, “Compositions comprising aticaprant” (Janssen Pharmaceuticals, Inc., priority 2022, dated 2025)
# Where two headings read alike, the source gives them in different places.
# Legend:
# [1] = Plasma Cmax of aticaprant in subjects with MDD (Example 6); assay type: in vivo; conditions: human, oral, 10 mg, 10 mg once daily, read-out: Cmax, Arithmetic Mean (SD)
# From the text: vi. To assess the plasma PK of aticaprant in subjects with MDD and explore its relationship with efficacy and safety parameters.
# Cmax is defined as maximum plasma concentration of aticaprant. […] Here ‘N’ (number of subjects analyzed) includes the number of subjects evaluable for this endpoint. Here ‘n’ (number analyzed) included all subjects evaluable for specified time point categories.
# [2] = Phase 1 PK Part 1: relative bioavailability, dose proportionality, food effect of unmilled API tablet; assay type: in vivo, human; conditions: for Tmax: median
# Procedure: This is a Phase 1, open-label, single dose, multicenter, 4-part study in healthy adult participants.
# Potential participants will be screened from Day −28 to Day −2 to determine participants' eligibility for study participation. For Part 1, qualified participants will be admitted on Day −1 of each treatment period and will remain in-house for the total duration of the treatment (Day −1 until Day 5, with single-dose treatment on Day 1 and 96 hours of PK), whereas for Part 2, PK sampling will be done up to 120 hours (Day 6). Each dosed participant will have a safety follow-up on Day 10 to Day 14 after last dose of the study intervention.
# The Part 1 of the study involves determination of relative bioavailability for tablet (Formulation Concept 1, i.e., unmilled aticaprant formulation, see Table 10) and capsule formulations (see Example 6, study design, for description of capsule formulation) and dose proportionality and food effect for tablet formulation (Formulation Concept 1) in healthy adult participants (FIG. 25). Part 1 will consist of Subpart 1A and Subpart 1B consisting of a total of 4 periods. […] Participants will be assigned to 1 of 6 treatment sequences (Table 51) and will be administered the 3 treatments in a 3-way crossover. The same 24 participants who complete Subpart 1A will be enrolled in Subpart 1B. Subpart 1B consists of a fourth period to evaluate the food effect of a single dose of 10 mg aticaprant administered as 1×10 mg oral tablet (Formulation Concept 1) under fed conditions (Treatment D; Table 50 and Table 52). A preliminary PK analysis will be conducted at the end of the food effect part (Subpart 1B) for all the periods from Part 1 and will include the food effect data.
# Secondary Objectives: • To assess the safety and tolerability of oral doses of aticaprant in healthy adult participants. Part 2
# For each individual participant, there will be a washout period of at least 7 days for Part 1 and at least 8 days for Part 2 between subsequent intakes of the study intervention. Day 1 of a treatment period (day of study intervention intake) is the first day of the washout period (also in between the study parts, if applicable).
# Participants will be fasting in Part 1A and Part 2A. Participants will have been fed in Parts 1B and 2B. For a fasted condition, participants will fast (nothing to cat or drink except noncarbonated water) overnight for at least 10 hours before and until 4 hours after study intervention administration during each fasted treatment period. Approximately, 4 hours post-dose and after the 4-hour PK sampling, a standard lunch will be served at the study-site. Intake of water is allowed until 2 hours before the intake of the study intervention. Thereafter, water intake is only allowed for study intervention intake and for breakfast, if applicable. Drinking of water is allowed ad libitum from approximately 2 hours after dosing. For a fed condition, participants will consume, after an overnight fast (at least 10 hours), a standardized high-fat breakfast within a 20-minute period. […] Study intervention will be administered approximately 30 minutes after the start of the breakfast.
# In Parts 1 and 2, plasma concentrations will be determined for aticaprant. Blood samples for determination of plasma concentrations of aticaprant will be collected predose and at the postdose time points starting on Day 1 as indicated in the Tables 57-58.
# The following plasma PK parameters of aticaprant will be determined. A noncompartmental model with extravascular input will be used for the pharmacokinetic analysis.
# Based on the individual concentration-time data, using the actual sampling times, the following PK parameters will be derived for aticaprant: […]
# [3] = Dose proportionality: C (Test, 5 mg tablet normalized to 10 mg) vs B (Reference, 10 mg tablet), fasting
# [4] = Food effect: Treatment D (high-fat breakfast, Test)/Treatment B (fasting, Reference), 10 mg Formulation Concept 1
# [5] = Relative BA: Treatment B (10 mg tablet, Test)/Treatment A (2 × 5 mg capsule, Reference), fasting
# [6] = Treatment A: 2 × 5 mg oral capsule, fasting, mean
# [7] = Treatment B: 1 × 10 mg Formulation Concept 1 (unmilled API tablet), fasting, mean
# [8] = Treatment C (1 × 5 mg Formulation Concept 1, fasting), 5 mg dose normalized to 10 mg, mean (SD)
# [9] = Treatment C: 1 × 5 mg Formulation Concept 1 (unmilled API tablet), fasting, mean
# [10] = Treatment D: 1 × 10 mg Formulation Concept 1 (unmilled API tablet), after high-fat breakfast, mean
# [11] = human, plasma, oral, 5 mg, Treatment C: 1 × 5 mg Formulation Concept 1 (unmilled API tablet), fasting, mean
# [12] = human, plasma, oral, 10 mg, Treatment B: 1 × 10 mg Formulation Concept 1 (unmilled API tablet), fasting, mean
# [13] = human, plasma, oral, 10 mg, Treatment D: 1 × 10 mg Formulation Concept 1 (unmilled API tablet), after high-fat breakfast, mean
# [14] = human, plasma, po, 10 mg, Treatment A: 2 × 5 mg oral capsule, fasting, mean
smiles,measurement,setting,value
"Cc1cc(C)cc(C2CCCN2Cc2ccc(Oc3ccc(C(N)=O)cc3F)cc2)c1 (stereo not shown) [aticaprant, 3-fluoro-4-4-2-(3,5-dimethylphenyl)pyrrolidin-1-yl-methylphenoxybenzamide]",Cmax,"[1]; Week 1, eITT",32.7 ± 10.9 ng/mL
same,Cmax,"[1]; Week 3, eITT",33.5 ± 11.1 ng/mL
same,Cmax,"[1]; Week 6, eITT",34.3 ± 11.1 ng/mL
same,Geometric Mean Cmax,"[2]; Dose proportionality, completers, Treatment B (Reference): 1 × 10 mg Formulation Concept 1, fasting",32.8 ng/mL
same,"Ratio of Geometric Means, AUClast",[2]; [3],103.20%
same,"Ratio of Geometric Means, AUC∞",[2]; [3],103.93%
same,"Ratio of Geometric Means, Cmax",[2]; [3],102.12%
same,Geometric Mean Cmax,"[2]; Food effect, completers, Treatment B (Reference): 1 × 10 mg Formulation Concept 1, fasting",32.6 ng/mL
same,"Ratio of Geometric Means, AUClast",[2]; [4],144.01%
same,"Ratio of Geometric Means, AUC∞",[2]; [4],143.84%
same,"Ratio of Geometric Means, Cmax",[2]; [4],112.49%
same,Geometric Mean Cmax,"[2]; Relative BA, completers, Treatment B (Test): 1 × 10 mg Formulation Concept 1, fasting",32.8 ng/mL
same,"Ratio of Geometric Means, AUClast",[2]; [5],93.31%
same,"Ratio of Geometric Means, AUC∞",[2]; [5],94.14%
same,"Ratio of Geometric Means, Cmax",[2]; [5],108.64%
same,CL/F,[2]; [6],34.5 L/h
same,Λz,[2]; [6],0.030 h⁻¹
same,CL/F,[2]; [7],36.2 L/h
same,Cmax,[2]; [7],34.1 ng/mL
same,Λz,[2]; [7],0.029 h⁻¹
same,"AUClast, C Dose Normalized",[2]; [8],286 (79.7) h * ng/mL
same,"AUC∞, C Dose Normalized",[2]; [8],309 (86.4) h * ng/mL
same,"Cmax, C Dose Normalized",[2]; [8],33.9 (8.97) ng/mL
same,CL/F,[2]; [9],35.8 L/h
same,Λz,[2]; [9],0.035 h⁻¹
same,CL/F,[2]; [10],25.0 L/h
same,Λz,[2]; [10],0.031 h⁻¹
same,AUC(0-t),"[2]; human, plasma, oral, 5 mg, Dose proportionality, completers, Treatment C (Test): 1 × 5 mg Formulation Concept 1, fasting, 5 mg dose normalized to 10 mg, read-out: Geometric Mean AUClast",280 ng·h/mL
same,AUC(0-inf),"[2]; human, plasma, oral, 5 mg, Dose proportionality, completers, Treatment C (Test): 1 × 5 mg Formulation Concept 1, fasting, 5 mg dose normalized to 10 mg, read-out: Geometric Mean AUC∞",299 ng·h/mL
same,Vd/F,[2]; [11],1150 L
same,half-life,[2]; [11],24.7 h
same,AUC(0-t),"[2]; human, plasma, oral, 5 mg, Treatment C: 1 × 5 mg Formulation Concept 1 (unmilled API tablet), fasting, mean, read-out: AUClast",143 ng·h/mL
same,AUC(0-inf),"[2]; human, plasma, oral, 5 mg, Treatment C: 1 × 5 mg Formulation Concept 1 (unmilled API tablet), fasting, mean, read-out: AUC∞",155 ng·h/mL
same,Cmax,"[2]; human, plasma, oral, 5 mg, Treatment C: 1 × 5 mg Formulation Concept 1 (unmilled API tablet), fasting, mean, read-out: Cmax",17 ng/mL
same,Tmax,"[2]; human, plasma, oral, 5 mg, Treatment C: 1 × 5 mg Formulation Concept 1 (unmilled API tablet), fasting",1.5 h
same,AUC(0-t),"[2]; human, plasma, oral, 10 mg, Dose proportionality, completers, Treatment B (Reference): 1 × 10 mg Formulation Concept 1, fasting, read-out: Geometric Mean AUClast",271 ng·h/mL
same,AUC(0-inf),"[2]; human, plasma, oral, 10 mg, Dose proportionality, completers, Treatment B (Reference): 1 × 10 mg Formulation Concept 1, fasting, read-out: Geometric Mean AUC∞",287 ng·h/mL
same,AUC(0-t),"[2]; human, plasma, oral, 10 mg, Food effect, completers, Treatment B (Reference): 1 × 10 mg Formulation Concept 1, fasting, read-out: Geometric Mean AUClast",270 ng·h/mL
same,AUC(0-inf),"[2]; human, plasma, oral, 10 mg, Food effect, completers, Treatment B (Reference): 1 × 10 mg Formulation Concept 1, fasting, read-out: Geometric Mean AUC∞",287 ng·h/mL
same,AUC(0-t),"[2]; human, plasma, oral, 10 mg, Food effect, completers, Treatment D (Test): 1 × 10 mg Formulation Concept 1, after high-fat breakfast, read-out: Geometric Mean AUClast",388 ng·h/mL
same,AUC(0-inf),"[2]; human, plasma, oral, 10 mg, Food effect, completers, Treatment D (Test): 1 × 10 mg Formulation Concept 1, after high-fat breakfast, read-out: Geometric Mean AUC∞",413 ng·h/mL
same,Cmax,"[2]; human, plasma, oral, 10 mg, Food effect, completers, Treatment D (Test): 1 × 10 mg Formulation Concept 1, after high-fat breakfast, read-out: Geometric Mean Cmax",36.6 ng/mL
same,AUC(0-t),"[2]; human, plasma, oral, 10 mg, Relative BA, completers, Treatment B (Test): 1 × 10 mg Formulation Concept 1, fasting, read-out: Geometric Mean AUClast",271 ng·h/mL
same,AUC(0-inf),"[2]; human, plasma, oral, 10 mg, Relative BA, completers, Treatment B (Test): 1 × 10 mg Formulation Concept 1, fasting, read-out: Geometric Mean AUC∞",287 ng·h/mL
same,Vd/F,[2]; [12],1340 L
same,half-life,[2]; [12],26.6 h
same,AUC(0-t),"[2]; human, plasma, oral, 10 mg, Treatment B: 1 × 10 mg Formulation Concept 1 (unmilled API tablet), fasting, mean, read-out: AUClast",283 ng·h/mL
same,AUC(0-inf),"[2]; human, plasma, oral, 10 mg, Treatment B: 1 × 10 mg Formulation Concept 1 (unmilled API tablet), fasting, mean, read-out: AUC∞",301 ng·h/mL
same,Tmax,"[2]; human, plasma, oral, 10 mg, Treatment B: 1 × 10 mg Formulation Concept 1 (unmilled API tablet), fasting",1.5 h
same,Vd/F,[2]; [13],835 L
same,half-life,[2]; [13],24.5 h
same,AUC(0-t),"[2]; human, plasma, oral, 10 mg, Treatment D: 1 × 10 mg Formulation Concept 1 (unmilled API tablet), after high-fat breakfast, mean, read-out: AUClast",398 ng·h/mL
same,AUC(0-inf),"[2]; human, plasma, oral, 10 mg, Treatment D: 1 × 10 mg Formulation Concept 1 (unmilled API tablet), after high-fat breakfast, mean, read-out: AUC∞",425 ng·h/mL
same,Cmax,"[2]; human, plasma, oral, 10 mg, Treatment D: 1 × 10 mg Formulation Concept 1 (unmilled API tablet), after high-fat breakfast, mean, read-out: Cmax",37.7 ng/mL
same,Tmax,"[2]; human, plasma, oral, 10 mg, Treatment D: 1 × 10 mg Formulation Concept 1 (unmilled API tablet), after high-fat breakfast",2.75 h
same,AUC(0-t),"[2]; human, plasma, po, 10 mg, Relative BA, completers, Treatment A (Reference): 2 × 5 mg oral capsule, fasting, read-out: Geometric Mean AUClast",291 ng·h/mL
same,AUC(0-inf),"[2]; human, plasma, po, 10 mg, Relative BA, completers, Treatment A (Reference): 2 × 5 mg oral capsule, fasting, read-out: Geometric Mean AUC∞",305 ng·h/mL
same,Cmax,"[2]; human, plasma, po, 10 mg, Relative BA, completers, Treatment A (Reference): 2 × 5 mg oral capsule, fasting, read-out: Geometric Mean Cmax",30.2 ng/mL
same,Vd/F,[2]; [14],1250 L
same,half-life,[2]; [14],26.3 h
same,AUC(0-t),"[2]; human, plasma, po, 10 mg, Treatment A: 2 × 5 mg oral capsule, fasting, mean, read-out: AUClast",304 ng·h/mL
same,AUC(0-inf),"[2]; human, plasma, po, 10 mg, Treatment A: 2 × 5 mg oral capsule, fasting, mean, read-out: AUC∞",315 ng·h/mL
same,Cmax,"[2]; human, plasma, po, 10 mg, Treatment A: 2 × 5 mg oral capsule, fasting, mean, read-out: Cmax",31.2 ng/mL
same,Tmax,"[2]; human, plasma, po, 10 mg, Treatment A: 2 × 5 mg oral capsule, fasting",1.5 h
